Measured values from PMC10610545, “Preclinical Evaluation of an Imidazole-Linked Heterocycle for Alzheimer’s Disease” (Pharmaceutics, 2023).

Key:
Assay type in all cases: in vivo, mouse
PSD95 = assay: Western blot of hippocampal PSD95 in 5XFAD mice; conditions: 5XFAD hippocampus, 2 mg/Kg, vs 5XFAD Control
Protocol: (§1) Four-month-old female and male Wt and 5XFAD mice (n = 32) were used to carry out cognitive and molecular analyses. […] The animals had free access to food and water and were kept under standard temperature conditions (22 ± 2 °C) and 12 h/12 h light/dark cycles (300 lx/0 lx). […] After 4 weeks of treatment, cognitive tests, including short- and long-term memory and OLT, were performed to study the effects of treatment on learning and memory. Weight and water consumption were controlled each week, and the LSL33 concentration was adjusted accordingly to reach the optimal dose until euthanasia.
(§2) Three days after cognitive tests, mice were euthanized for protein extraction and RNA and DNA isolation. After euthanasia, the brains were immediately removed from the skulls, and the hippocampi were dissected, frozen, and maintained at −80 °C.
For western blotting (WB), aliquots of 20 μg of hippocampal protein were used. […]
The membranes were washed and incubated with secondary antibodies for 1 h at room temperature. […] Protein loading was routinely monitored by immunodetection of glyceraldehyde-3-phosphate dehydrogenase (GAPDH).
(§3) Figure 7 Results from an in vivo study of synaptic plasticity markers. (A) Representative protein levels and quantification by WB for PSD95. (B,C) Representative gene expression for Ngf and Bdnf Gene expression levels were determined by real-time PCR. […]

5XFAD mice = assay: Object location test (OLT) in 5XFAD mice; conditions: 2 mg/Kg in drinking water, 4 weeks, vs 5XFAD Control
Protocol: as §1
The OLT evaluated the spontaneous tendency of rodents to spend more time exploring a novel object location than a familiar object location and recognizing when an object has been relocated. OLT was performed using a white plywood apparatus (50 × 50 × 25 cm), in which three walls were white and one was black. On the first day, animals were just habituated to the empty open-field arena for 10 min. On the second day, two objects were placed in front of the black wall, equidistant from each other and the wall. The objects were 10 cm high and identical. […] Trials were recorded using a camera mounted above the open field area, and the total exploration time was determined by scoring TN and TO. DI was calculated, defined as (TN−TO)/(TN+TO). […]

[1] = system: Ngf, Bdnf, Tnf-a, Il-6 gene expression; assay: Real-time PCR gene expression in hippocampus of 5XFAD mice; conditions: 2 mg/Kg
Protocol: as §1, §2
Total RNA isolation was carried out using TRIzol® reagent according to the manufacturer’s instructions. The yield, purity, and quality of RNA were determined spectrophotometrically with a NanoDrop™ ND-1000 apparatus (Thermo Scientific, Waltham, MA, USA) and an Agilent 2100B Bioanalyzer (Agilent Technologies, Santa Clara, CA, USA). RNA samples with 260/280 ratios and RNA integrity numbers (RINs) higher than 1.9 and 7.5, respectively, were selected. A reverse transcription-polymerase chain reaction (RT-PCR) was performed. Briefly, 2 μg of messenger RNA (mRNA) was reverse-transcribed using a high-capacity cDNA reverse transcription kit (Applied Biosystems, Foster City, CA, USA).
SYBR® Green real-time PCR was performed on a StepOnePlus Detection System (Applied Biosystems) with SYBR® Green PCR master mix (Applied Biosystems). Each reaction mixture contained 6.75 μL of complementary DNA (cDNA) (with a concentration of 2 μg), 0.75 μL of each primer (with a concentration of 100 nM), and 6.75 μL of SYBR® Green PCR master mix (2×).
The data were analyzed utilizing the comparative cycle threshold (Ct) (ΔΔCt) method, in which the levels of a housekeeping gene are used to normalize differences in sample loading and preparation. Normalization of expression levels was performed with β-actin for SYBR® Green-based real-time PCR. Each sample was analyzed in duplicate, and the results represent the n-fold differences in the transcript levels among different groups.
as §3, with “PCR. The data correspond to the mean ± SEM (n = 3–5 mice per group).” for “PCR.”
Figure 8 Results from an in vivo study Neuroinflammatory markers. Representative gene expression for Tnf-a and Il-6 Gene expression levels were determined by real-time PCR. […]

[2] = 5XFAD hippocampus, vs 5XFAD Control

In the case of Cl.c1ccc2sc(-c3ncc[nH]3)cc2c1 [LSL33, 2-(Benzo[b]thiophene-2-yl)-1H-imidazole hydrochloride], the PSD95 protein levels (PSD95) is reported as “increase in PSD95”, the “OLT discrimination index (DI)” value (5XFAD mice) is reported as “increase in the discrimination index (DI)” and the Il-6 gene expression [1, 2] is reported as “clear tendency to reduce both cytokines”. The Ngf gene expression [1, 2] was “significant increase in Ngf gene expression”, the Tnf-a gene expression [1, 2] was “clear tendency to reduce both cytokines” and the Bdnf gene expression ([1]; both treated groups (Wt and 5XFAD)) was “clear tendency to increase”.
